PMC6321231, “Synthesis and Anti-Inflammatory Activities of Phloroglucinol-Based Derivatives” (Molecules, 2018)

Legend:
[1] = tested on: iNOS; assay: Assay for iNOS inhibition (nitrite by Griess reagent) in LPS-induced macrophages; assay type: cell-based; details: Mus musculus, RAW264.7; LPS-induced RAW 264.7 macrophages; NA = not active at 50 µM
Protocol: The assay was performed in mouse macrophages (RAW264.7, obtained from ATCC)) cultured in phenol red free RPMI medium supplemented with 10% bovine calf serum and 100 U/mL penicillin G sodium, and 100 μg/mL streptomycin at 37 °C in an atmosphere of 5% CO2 and 95% humidity. Cells were seeded in 96-well plates (50,000 cells/well) and incubated for 24 h for a confluency of 75% or more. Test samples diluted in serum free medium were added, and after 30 min of incubation, LPS (5 μg/mL) was added and cells were further incubated for 24 h. The concentration of nitric oxide (NO) was determined by measuring the level of nitrite in the cell culture supernatant by using Griess reagent. Percent inhibition of nitrite production by the test compound was calculated in comparison to the vehicle control. IC50 values were obtained from concentration response curves. Parthenolide was used as a positive control.

[2] = tested on: NF-κB; assay: Assay for NF-κB inhibition (luciferase reporter) in PMA-induced SW1353 cells; assay type: cell-based; details: PMA-induced human chondrosarcoma cells (SW1353); NA = not active at 100 µM
Protocol: The assay was performed in human chondrosarcoma cells (SW1353, obtained from American Type Culture Collection (ATCC), Manassas, VA, USA). Cells were cultured in 1:1 mixture of DMEM/F12 supplemented with 10% fetal bovine serum (FBS), 100 U/mL penicillin G sodium, and 100 μg/mL streptomycin at 37 °C in an atmosphere of 5% CO2 and 95% humidity. Cells (1.2 × 10^7) were washed once in an antibiotic and FBS-free DMEM/F12, and then resuspended in 500 μL of antibiotic-free DMEM/F12 containing 2.5% FBS. NF-κB luciferase plasmid construct was added to the cell suspension at a concentration of 50 μg/mL and incubated for 5 min at room temperature. The cells were electroporated at 160 V and one 70-ms pulse using BTX disposable cuvettes model 640 (4-mm gap) in a BTX Electro Square Porator T 820 (BTX I, San Diego, CA, USA). The transfected cells were plated to the wells of 96-well plates at a density of 1.25 × 10^5 cells per well. After 24 h, cells were treated with different concentrations of test compound for 30 min before the addition of PMA (70 ng/mL) and incubated for 8 h. Luciferase activity was measured using the Luciferase Assay kit (Promega). Light output was detected on a SpectraMax plate reader. Percent inhibition of luciferase activity was calculated as compared to vehicle control, and IC50 values were obtained from concentration response curves. Parthenolide was used as positive control.

[3] = tested on: Cryptococcus neoformans; set-up: method as in PMID 27584935; details: against Cryptococcus neoformans; cited from earlier work

| IC50 [1] [µM] | IC50 [2] [µM] | Compound | in vitro antifungal activity [3] |
| --- | --- | --- | --- |
| 19 ± 1.4 | 34 ± 8.5 | CC(=O)c1c(O)cc(O)c(C(C)=O)c1O [Compound 2] | potent |
|  | 90 ± 14.1 | CC(C)C(=O)c1c(O)cc(O)cc1O [Compound 3] |  |
| 19.5 ± 0.7 | 37.5 ± 3.5 | CC(C)C(=O)c1c(O)cc(O)c(Cc2ccc(Br)cc2)c1O [Compound 4, 1-[3-(4-Bromo-benzyl)-2,4,6-trihydroxy-phenyl]-2-methyl-propan-1-one] |  |
| 50 | 29 ± 15.5 | COCOc1cc(OCOC)c(C(=O)C(C)C)c(O)c1Cc1ccc(Br)cc1 [Compound 5, 1-[3-(4-Bromo-benzyl)-2-hydroxy-4,6-bis-methoxymethoxy-phenyl]-2-methyl-propan-1-one] |  |
| 19 ± 1.4 | 85 ± 21.2 | CC(C)C(=O)c1c(O)cc(O)c(Cc2ccc(Cc3c(O)cc(O)c(C(=O)C(C)C)c3O)cc2)c1O [Compound 6, 2-Methyl-1-{2,4,6-trihydroxy-3-[4-(2,4,6-trihydroxy-3-isobutyryl-benzyl)-benzyl]-phenyl}-propan-1-one] |  |
| 49 ± 1.4 |  | CC(C)C(=O)c1c(O)cc(O)c(Cc2ccc(CN3CCCCC3)cc2)c1O [Compound 7, 2-Methyl-1-[2,4,6-trihydroxy-3-(4-piperidin-1-ylmethyl-benzyl)-phenyl]-propan-1-one] |  |
| 2.5 ± 0.2 | 20.5 ± 2.9 | C=C1C(=O)O[C@H]2[C@H]1CC/C(C)=C/CC[C@@]1(C)O[C@@H]21 [Parthenolide, reference compound] |  |
